Measured values published in US20240245677A1, “SELECTED COMPOUNDS FOR TARGETED DEGRADATION OF BRD9” (C4 THERAPEUTICS, INC., priority 2021, published 2024).
Several values for one entry are separate records, joined by “and”; a condition that tells them apart may be missing. Identical values can stand only once. Like-named read-outs stand apart in the source and are kept apart here.

What was measured:
bromodomain of BRD9 = molecular target: T1, bromodomain of BRD9 (Homo sapiens, UniProt Q9H8M2); test: AlphaLISA competition assay, binding to BRD9
T1 construct: made in house; host or cells: E. coli
Experimental: An AlphaLISA® (Perkin Elmer Inc., Dumfries, VA, USA) displacement assay was used to determine the binding affinity of Compound 1 to purified bromodomain of BRD9 protein.
Human histidine-tagged (His-tag) bromodomain of BRD9 was expressed in E. coli and purified, with a concentration of 1.1 mg/mL. The bromodomain of BRD9 was labeled with an AlphaLISA® donor bead (Catalog No. AS101R, Perkin Elmer Inc., Dumfries, VA, USA) attached via a His-tag on the protein. A potent BRD9 ligand was chemically modified to attach a biotin tag. The biotin tag was subsequently used to attach a streptavidin-labeled AlphaLISA® acceptor bead (Catalog No. AL125M, Perkin Elmer Inc., Dumfries, VA, USA).
Determination of the binding constant (Kd) of Compound 1 to the bromodomain of BRD9 was carried out using an AlphaLISA® competition assay, where binding of Compound 1 to BRD9 was measured via loss of signal upon displacement of biotinylated BRD9 ligand tagged with the AlphaLISA® acceptor bead. […]
Response (normalized signal), R, for each well containing the test compounds was calculated using the averaged signal from negative and positive control wells: […]
Compound 1 competed with fluorescence probe for binding to bromodomain of BRD9. […]

[1] = test system: cryopreserved human hepatocytes; test: Human Hepatocyte Stability Assay; format: in vitro ADME
Experimental: (§1) The metabolic stability of Compound 1 was evaluated using cryopreserved hepatocytes from mice, rats, dogs, cynomolgus monkeys, and humans.
(§2) 50 μL of 1 mM intermediate solutions for each test compound was prepared by adding 5 μL of 10 mM stock solution to 45 μL of a 1:1 mixture of water and acetonitrile. A 2 μM working stocks for each test compound were prepared in incubation media, InvitroGRO™ KHB (Bio IVT, Westbury, NY, USA), by adding 2 μL of 1 mM intermediate stock to 998 μL of incubation media.
(§3) To thaw the hepatocytes, InvitroGRO™ HT thawing medium (BioIVT, Westbury, NY, USA) was prewarmed to 37° C., and 48 mL of warmed thawing medium was transferred to a sterile 50 mL conical tube. The hepatocyte vial was removed from the liquid nitrogen Dewar, and gently thawed in a water bath at 37° C. for 1-2 minutes, then the contents of the vial were emptied into a conical tube with prewarmed InvitroGRO HT medium. 1 mL of prewarmed InvitroGRO HT medium was added to each emptied hepatocyte vial to resuspend any remaining cells, and the contents were pipetted into the hepatocyte suspension. The tube containing the hepatocyte suspension was centrifuged at 50*g for 5 minutes. The supernatant was removed carefully, and the remaining pellet was resuspended by adding 1 mL of incubation media, InvitroGRO KHB, and gently shaking until there were no clumps.
(§4) Cell viability was determined using the trypan blue method. 25 μL of hepatocyte cell suspension was added to a trypan blue (TB) solution (containing 775 μL InvitroGRO KHB and 200 μL of Trypan Blue). Cell count was taken using a hemacytometer.
(§5) For mouse hepatocytes, 200 μL of hepatocytes (0.8×10^6 cells/mL) were added to the wells of a 48 well plate (Catalog No. 92048, TPP Techno Plastic Products AG, Trasadingen, Switzerland) and pre-incubated for 30 minutes at 37° C. For rat, dog, monkey, […], 200 μL of hepatocytes (2×10^6 cells/mL) were added to the wells of a 48 well plate (Catalog No. 92048, TPP Techno Plastic Products AG, Trasadingen, Switzerland) and pre-incubated for 30 minutes at 37° C.
(§6) For all species of hepatocytes, once the pre-incubation period was complete, 200 μL of 2 μM working stock of test compound was added to the wells of the plate, and the plate was vortexed on a Vibramax™ 100 (P/N 544-21200-00, Heidolph Instruments GmbH & Co. KG, Schwabach, Germany) at 500 rpm in a 37° C. CO2 incubator (Model No. 51026280, ThermoFisher Scientific, Waltham, MA, USA). At each time point of 0, 15, 30, 60, 90, and 120 minutes, 50 μL of incubation mixture was precipitated with 200 μL of acetonitrile containing internal standard.
(§7) At the end of the experiment, the samples were centrifuged at 4000 rpm for 10 minutes. […]

[2] = Human Hepatocyte Stability Assay; format: in vitro ADME; settings: cryopreserved hepatocytes
Experimental: as §1, §2, §3, §4, §5, §6, §7

T1 sequence (Q9H8M2 136-240 limits assumed): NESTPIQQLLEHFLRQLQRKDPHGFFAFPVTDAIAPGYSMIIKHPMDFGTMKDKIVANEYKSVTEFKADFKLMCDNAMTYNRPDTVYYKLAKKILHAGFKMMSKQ

SMILES: COc1cc(-c2cn(C)c(=O)c(C)c2C)cc(OC)c1CN1CC[C@H](N2CCN(c3ccc(N[C@H]4CCC(=O)NC4=O)cc3F)CC2)C(F)(F)C1 [Compound 1, (S)-3-((4-(4-((S)-1-(2,6-dimethoxy-4-(1,4,5-trimethyl-6-oxo-1,6-dihydropyridin-3-yl)benzyl)-3,3-difluoropiperidin-4-yl)piperazin-1-yl)-3-fluorophenyl)amino)-piperidine-2,6-dione]
- Kd (bromodomain of BRD9; each occasion in duplicate, read-out: Kd, individual test occasion): 157 nM and 131 nM and 129 nM
- Kd (bromodomain of BRD9; n=3, read-out: Kd (geometric mean), binding affinity to BRD9): 139 nM
- CLhb scaled well stirred [1]: 8.4 mL/min/kg body wt.
- half-life at 1 µM [2]: > 2 h
- hepatocyte CLint at 1 µM ([2]; read-out: CL int cells): 4.67 µL/min/1e6 cells
- CLint scaled at 1 µM ([2]; read-out: CL int in vivo): 14.4 mL/min/kg
